Measurements: paper PMC8222276 (Communications Biology, 2021)

How the values were obtained:
Format in all cases: cell-based
[1] = target: T1, AM1 receptor (CLR-RAMP2) in HUVECs (Homo sapiens, UniProt O60895+Q16602); experiment: ERK1/2 phosphorylation in HUVECs
T1 construct: HUVECs specifically express the AM1 receptor alone; host or cells: primary HUVECs
Method: (§1) Data are analysed using a three-parameter non-linear regression curve or the operational model of receptor agonism. g–h Signalling bias plots were calculated as ∆Log(τ/KA) (g) or ∆∆Log(τ/KA) (h) for each agonist and for each signalling pathway. […] Solid arrows indicate known pathways. Dashed arrows represent possible pathways.
Data are analysed using a three-parameter non-linear regression curve. All data represent mean ± SEM of n independent experiments. Statistical significance determined compared to control using an unpaired Student’s t test with Welch’s correction (*p < 0.05; **p < 0.01; ***p < 0.001).
Primary cells were grown in 6 well plates, on the day of the experiment media was replaced with serum free media 4 h prior to cell harvesting. Tyrpsin-EDTA was used to dissociate the cells and they were collected by centrifugation, counted and re-suspended HBSS/BSA (0.1%). Ligands were also diluted in HBSS/BSA. Cells were then plated on 384 well plates in 8 μl aliquots at a density of 20,000 cells/well. Next, ligands were added (4 μl) for 5 min stimulation at room temperature. Cells were then lysed as per to the manufacturer’s instructions with 4 μl of lysis buffer (Cisbio phosphor-ERK1/2 cellular assay kit, Invitrogen, UK) for 30 min shaking at room temperature. The 2 specific antibodies; were pre-mixed in a 1:1 ratio. 4 μl of this was added to each well and the plate incubated for a further 2 h. […] Antagonist studies were performed in the same way through co-stimulation with PTX (200 ng/ml), Rp-8-Br-cAMPS (100 μM), YM-254890 (100 nM), or ESI-09 (100 μM) as appropriate alongside control-treated cell.
(§2) All sample sizes were determined, and data analysed, in accordance with the guidelines described by Curtis M et al.[65]. All experiments were appropriately controlled using ‘system pathway’ agonists. If any of these pathway controls generated inappropriate responses, then the entire data set was removed from analysis. […] Data analysis for cAMP accumulation, Ca^2+i mobilisation, NO accumulation, pERK1/2 activation, and cell proliferation assays were performed in GraphPad Prism 8.4 (GraphPad Software, San Diego). Data were fitted to obtain concentration–response curves using either the three-parameter logistic equation using to obtain values of Emax and pEC50 or the operational model of agonism. Statistical differences were analysed using one-way ANOVA followed by Dunnett’s post-hoc (for comparisons amongst more than two groups) or unpaired Student’s t test with Welch’s correction (for comparison between two groups). To account for the day-to-day variation experienced from the cultured cells, we used the maximal level of cAMP accumulation from cells in response to 100 μM forskolin stimulation was used as a reference, 10 μM ionomycin for Ca^2+i assays, 10 μM phorbol 12-myristate 13-acetate (PMA) for pERK1/2 activation, 10 μM acetylcholine for NO production and 10 μM VEGF for cell proliferation. […] Where appropriate the operational model for receptor agonism[27] was used to obtain efficacy (τ) and equilibrium disassociation constant (KA) values. In both cases, this normalisation removes the variation due to differences in days but retains the variance for control values. The means of individual experiments were combined to generate the curves shown. Having obtained values for τ and KA these were then used to quantify signalling bias as the change in Log(τ/KA)[19],[28]. Error for this composite measure was propagated by applying Eq. 1.1 PooledSEM=(SEMA)^2+(SEMB)^2 Where, SEMA and SEMB are the standard error of measurement A and B.

[2] = target: T1, AM1 receptor (CLR-RAMP2) in HUVECs; experiment: total nitric oxide production in HUVECs; conditions: HUVEC
Method: as §1
Endothelial cells and HCMs were cultured as above. 24 h prior to assay cells were plated on Costar 96-well black clear bottom plates at 40,000 cells/well. The assay was performed according to the manufacturer’s protocol. Briefly, cells pre-incubated with NO dye and assay buffer 1 (Fluorometric Nitric Oxide Assay Kit, Abcam, UK) for 30 min at 37 °C in 5% CO2. Any inhibitors requiring 30 min pre-treatment (YM/L-NAME/DMSO control) were added at this point. Ligand stimulation occurred immediately after this for 15 min at 37 °C in 5% CO2. Stain and ligand solution was removed, assay buffer II was added, and wells were read immediately. The absorbance was measured using a Tecan T200 (Thermo Fisher Scientific UK) reader with an excitation/emission of 540/590 nm. Endothelial cell responses were normalised to 10 μM acetylcholine. HCM responses were normalised to 10 μM isoproterenol[63],[64].
as §2

[3] = test system: human cardiomyocytes (HCMs); experiment: cell proliferation (72 h) of HCMs; conditions: HCM
Method: Data are analysed using a three-parameter non-linear regression curve or the operational model of receptor agonism. g, h Signalling bias plots were calculated as ∆Log(τ/KA) (g) or ∆∆Log(τ/KA) (h) for each agonist and for each signalling pathway. […] All data represent mean ± SEM for n repeats.
Both endothelial cell lines and HCMs were seeded at a density of 2500 cells/well in a clear flat bottom 96-well plate (Corning, UK) and incubated at 37 °C in 5% CO2. After 24 h, cells were exposed to test compounds or vehicle, in complete endothelial cell growth media (HUVECs) or myocyte growth media (HCMs). Cells were incubated for a further 72 h at 37 °C in 5% CO2. After 72 h incubation, 5 μl of Cell Counting Kit–8 (CCK-8, Sigma, UK) was added to each well and cells were then incubated for another 2 h at 37 °C in 5% CO2 and in the dark[61]. The absorbance of each well was measured using a Mithras LB940 microplate reader with an excitation of 450 nm. The absorbance is directly proportional to the number of viable cells. Cell proliferation was calculated as a percentage of number of cells treated with vehicle alone.
as §2

[4] = pERK1/2, HUVEC, operational model, mean ± SEM
[5] = NO, operational model, mean ± SEM
[6] = proliferation, operational model, mean ± SEM

T1 sequence (Q16602 23-461): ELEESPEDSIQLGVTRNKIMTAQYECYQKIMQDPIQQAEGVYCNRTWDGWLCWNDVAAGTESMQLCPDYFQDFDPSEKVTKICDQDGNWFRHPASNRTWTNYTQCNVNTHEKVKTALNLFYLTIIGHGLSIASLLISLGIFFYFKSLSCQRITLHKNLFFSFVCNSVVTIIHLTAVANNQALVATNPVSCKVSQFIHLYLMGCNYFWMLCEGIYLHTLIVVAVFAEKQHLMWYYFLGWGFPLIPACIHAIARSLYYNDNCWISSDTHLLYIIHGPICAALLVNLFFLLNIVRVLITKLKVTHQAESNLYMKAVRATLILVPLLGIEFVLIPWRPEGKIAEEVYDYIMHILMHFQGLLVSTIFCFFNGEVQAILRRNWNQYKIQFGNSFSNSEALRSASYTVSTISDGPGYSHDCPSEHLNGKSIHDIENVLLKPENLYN
T1 sequence (O60895 43-175): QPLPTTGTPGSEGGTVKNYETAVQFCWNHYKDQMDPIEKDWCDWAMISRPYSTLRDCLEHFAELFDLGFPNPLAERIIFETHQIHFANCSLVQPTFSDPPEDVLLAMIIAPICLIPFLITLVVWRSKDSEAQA

For CSCC[C@H](NC(=O)[C@H](CC(C)C)NC(=O)[C@H](CCC(N)=O)NC(=O)[C@H](Cc1c[nH]c2ccccc12)NC(=O)[C@H](CC(C)C)NC(=O)[C@H](CCCNC(=N)N)NC(=O)[C@H](Cc1c[nH]cn1)NC(=O)[C@H](CO)NC(=O)[C@H](CC(C)C)NC(=O)[C@H](CC(N)=O)NC(=O)[C@H](CCC(N)=O)NC(=O)[C@@H](NC(=O)[C@H](CCC(N)=O)NC(=O)[C@@H]1CSSC[C@H](NC(=O)CNC(=O)[C@@H](NC(=O)[C@H](CCCNC(=N)N)NC(=O)[C@H](CC(C)C)NC(=O)[C@H](CC(C)C)NC(=O)[C@H](CCC(N)=O)NC(=O)[C@H](C)NC(=O)[C@H](CCC(N)=O)NC(=O)[C@@H](N)[C@@H](C)O)C(C)C)C(=O)N[C@@H](C(C)C)C(=O)N[C@@H](CC(C)C)C(=O)NCC(=O)N[C@@H]([C@@H](C)O)C(=O)N1)C(C)C)C(=O)NCC(=O)N1CCC[C@H]1C(=O)N[C@@H](C)C(=O)NCC(=O)N[C@@H](CCCNC(=N)N)C(=O)N[C@@H](CCC(N)=O)C(=O)N[C@@H](CC(=O)O)C(=O)N[C@@H](CO)C(=O)N[C@@H](C)C(=O)N1CCC[C@H]1C(=O)N[C@H](C(=O)N[C@@H](CC(=O)O)C(=O)N1CCC[C@H]1C(=O)N[C@@H](CO)C(=O)N[C@@H](CO)C(=O)N1CCC[C@H]1C(=O)N[C@@H](Cc1c[nH]cn1)C(=O)N[C@@H](CO)C(=O)N[C@@H](Cc1ccc(O)cc1)C(N)=O)C(C)C [AM2, adrenomedullin 2], the Emax ([1]; HUVEC) was 33.3 ± 4.59%, the “mechanism of ERK1/2 stimulation” value ([1]; HUVEC) was “mediated in a Gi/o-dependent manner” and the “effect of PTX on ERK1/2 phosphorylation” value ([1]; HUVEC, PTX) was “suppression of ERK1/2 phosphorylation”. For the same compound, the “Transducer coefficient Log(τ/KA)” value ([1]; pERK1/2, HUVEC, calculated from Table S1) was 5.06±0.21, the logτ [1, 4] was -0.35±0.08 and the pKA [1, 4] was 5.41±0.19. The Emax [2] was 82.1 ± 4.62%, the “order of potencies for NO synthesis” value [2] was “order of potencies AM2 > AM > CGRP” and the “Transducer coefficient Log(τ/KA)” value ([2]; NO, calculated from Table S1) was 6.80±0.17. For the same compound, the logτ [2, 5] was 0.65±0.09, the pKA [2, 5] was 6.15±0.15 and the “Transducer coefficient Log(τ/KA)” value ([3]; Growth, calculated from Table S2) was 5.78±0.60. For the same compound, the Emax ([3]; proliferation, 72 h, CCK-8, mean ± SEM) was 114.68±3.58%, the pEC50 ([3]; proliferation, 72 h, mean ± SEM of 3-6 data sets) was 6.48±0.58 and the logτ [3, 6] was -0.60±0.12. It also gave a pKA [3, 6] of 6.38±0.59.
